Test results: article PMC5291098, “Molecular mutagenesis of ppGpp: turning a RelA activator into an inhibitor” (Scientific Reports, 2017)
Like-named read-outs stand apart in the source and are kept apart here.

Molecular target: T1, E. coli RelA (Escherichia coli, UniProt P0AG20)
T1 construct: made in house
Assay: Inhibition of [3H]GDP to [3H]ppGpp conversion by E. coli RelA activated by vacant 70S ribosomes and 100 μM ppGpp
Format: biochemical
Conditions: for IC50: 30 nM RelA, 0.5 μM vacant 70S, 100 μM ppGpp; for nHill (Hill coefficient of the titration fit): Supplementary Table 1, 4-parameter logistic model; for Activation of RelA's synthetic activity (in words): ppGpp up to 100 μM, ppApp 50 µM-1 mM, thio-ppGpp 100 µM (Supplementary Figure 1); for Activity against RelA (in words) / Inhibitory effect on RelA (in words): RelA:70S:ppGpp system; for Inhibitory effect on RelA (in words): concentrations up to 1 mM
Protocol: For the initial characterization of compounds, we followed the inhibition of [^3H] GDP conversion to [^3H] ppGpp catalyzed by E. coli RelA in a simplified system in which RelA’s activity was induced by vacant 70S ribosomes and 100 μM of ppGpp[15]. Unlabeled ppGpp was added to reaction mixtures in order to linearize the kinetics of [^3H] ppGpp synthesis due to an activating effect on the RelA enzyme. We used a targeted library of 69 nucleotides belonging to several structural classes: ‘true’ ppGpp analogues; Relacin and its derivatives; pyrrolidine, azetidine, piperidine and acyclic phosphonates. Chemical structures of tested compounds and titrations in the RelA:70S:ppGpp system are presented in Supplementary Table 1.
Detailed description of experimental procedures can be found in Supplementary Text. Biochemical assays utilize in vitro translation[58] and stringent response[15] systems from E. coli purified components. Experiments were performed in HEPES:Polymix[58] buffer with either 5 (for enzymatically assembled initiation complexes) or 15 mM (for vacant 70 S, as well as non-enzymatically assembled programmed ribosomes) Mg^2+. Expression and purification of E. faecalis RelQ was performed as per Gaca (2015) and colleagues. GTPase and ppGpp synthesis were followed using TLC separation and radiochemical detection of ^3H-labelled nucleotides. Multiple round in vitro transcription assays were performed as per Bernardo et al.[49] with minor modifications. Inhibition efficiency (IC50) was calculated using 4-parameter logistic model (Hill equation) as per Sebaugh[60].
Thin layer chromatography (TLC) analysis of nucleotide mixtures
Both EF-G GTPase reaction and ppGpp synthesis by RelA were followed by TLC analysis followed by scintillation counting according to Mechold and colleagues, with modifications1. Time points from the reaction mixtures (5 μl, see below for details) were quenched by addition 4 μl 70% formic acid supplemented with a cold nucleotide standard used for UV-shadowing (10 mM GDP and 10 mM GTP) and spotted on PEI-TLC plates (Macherey-Nagel). TLC was run in buffer, plates dried, cut into sections guided by UV-shadowing and 3H radioactivity was quantified by scintillation counting in Optisafe-3 (Fisher) scintillation cocktail on Perkin Elmer Tricarb 2810TR counter. Conversion of substrate to product was quantified as described in Shyp et al. (2012)2.
Enzymatic assays with E. coli RelA
Screening: all experiments were performed in HEPES:Polymix, Mg2+ of 5 mM, 37 […]
μM ppGpp was pre-incubated at 37° C for 2 min and then reaction started by addition of 1 mM ATP, time points (5 μl) taken, quenched with formic acid and analyzed by TLC. Inhibition efficiency (IC50) was calculated using 4-parameter logistic model (Hill equation) as per Sebaugh (2011)3. […]

[1] = 0.3 mM [3H]GDP, 1 mM ATP, read-out: IC50
[2] = 5 mM Mg2+, 37 °C, no unit beside the value, titration axis in mM, read-out: IC50 (Supplementary Table 1, example titration)

T1 sequence (P0AG20 whole entry): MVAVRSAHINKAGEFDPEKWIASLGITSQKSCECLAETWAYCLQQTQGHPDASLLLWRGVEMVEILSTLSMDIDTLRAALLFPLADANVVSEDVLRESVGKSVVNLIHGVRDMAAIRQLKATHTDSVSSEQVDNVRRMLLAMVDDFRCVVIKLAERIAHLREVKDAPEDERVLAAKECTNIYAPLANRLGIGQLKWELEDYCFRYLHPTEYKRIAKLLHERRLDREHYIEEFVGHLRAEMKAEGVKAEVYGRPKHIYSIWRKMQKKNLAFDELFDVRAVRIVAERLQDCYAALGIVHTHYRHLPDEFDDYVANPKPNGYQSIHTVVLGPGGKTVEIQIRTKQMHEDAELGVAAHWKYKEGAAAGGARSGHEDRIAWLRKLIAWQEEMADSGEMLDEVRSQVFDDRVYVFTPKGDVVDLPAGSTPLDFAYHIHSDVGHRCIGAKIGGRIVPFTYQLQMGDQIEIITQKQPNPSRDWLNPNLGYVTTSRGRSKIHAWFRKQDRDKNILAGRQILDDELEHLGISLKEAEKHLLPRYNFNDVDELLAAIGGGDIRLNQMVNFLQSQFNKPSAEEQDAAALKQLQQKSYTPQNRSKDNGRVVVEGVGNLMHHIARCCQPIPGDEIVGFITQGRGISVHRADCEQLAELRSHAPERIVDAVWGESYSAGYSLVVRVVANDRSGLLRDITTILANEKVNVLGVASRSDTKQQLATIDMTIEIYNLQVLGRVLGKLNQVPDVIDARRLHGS

Row | SMILES | IC50 [1] [µM] | nHill (Hill coefficient of the titration fit) | other results
1 | Nc1nc2c(ncn2C2OC(COP(=O)(O)OP(=O)(O)O)C(OP(=O)(O)OP(=O)(O)O)C2O)c(=S)[nH]1 (stereo not shown) [6-thio-ppGpp, reference compound] | 21.3 ± 2.1 | 1.86 ± 0.29 | IC50 (5 mM Mg2+, 37 °C, no unit beside the value, titration axis in µM, read-out: IC50 (Supplementary Table 1, example titration)): 21.2 ± 2.08 µM; Activation of RelA's synthetic activity (in words): neither ppApp nor 6-thio-ppGpp activate; Activation of RelA's synthetic activity (in words) (listed as thio-ppGpp): do not activate
2 | CC(C)C(=O)Nc1nc2c(ncn2[C@@H]2O[C@H](COP(=O)(O)OCP(=O)(O)O)[C@@H](OP(=O)(O)OCP(=O)(O)O)[C@H]2OC2CCCCO2)c(=O)[nH]1 (stereo partly shown) [DR-4238, 2-N-isobutyryl-2’-tetrahydropyranylguanosine 3’,5’-di(phosphonomethoxyphosphate)] |  | 1.85 ± 0.2 | IC50 [2]: 100 ± 6 µM
3 | CC(C)C(=O)Nc1nc2c(ncn2C2OC(COP(=O)(O)OCP(=O)(O)O)C(OP(=O)(O)OCP(=O)(O)O)C2O)c(=O)[nH]1 (stereo not shown) [DR-4239, 2-N-isobutyryl-guanosine 3’,5’-di(phosphonomethoxyphosphate)] | 101 ± 8 | 2.13 ± 0.3 | IC50 [2]: 102 ± 8 µM
4 | CC(C)OP(=O)(O)CN1CC[C@H](n2cnc3c(=O)[nH]c(N)nc32)C1 [DR-4518] | 1710 ± 660 |  | 
5 | Nc1nc2c(ncn2[C@H]2CCN(C(=O)P(=O)(O)O)C2)c(=O)[nH]1 [DR-4520] | 200 ± 22 | 1.46 ± 0.2 | 
6 | Nc1nc2c(ncn2CCNCC(=O)P(=O)(O)O)c(=O)[nH]1 [DR-5164] | 1400 ± 120 |  | 
7 | Nc1nc2c(ncn2[C@@H]2CCN(C(=O)P(=O)(O)O)C2)c(=O)[nH]1 [DR-5267B] | 652 ± 194 | 0.95 ± 0.26 | 
8 | Nc1nc2c(ncn2C2CC(OC(=O)NCC(=O)NCC(=O)O)C(COC(=O)NCC(=O)NCC(=O)O)O2)c(=S)[nH]1 (stereo not shown) [DR-5732] |  |  | Activity against RelA (in words): virtually no activity; Activity against RelA (in words) (listed as thio-di-iBu-Relacin): complete inactivation
9 | Nc1nc2c(ncn2C2CC(OCP(=O)(O)O)C(COCP(=O)(O)O)O2)c(=O)[nH]1 (stereo not shown) [DR-5799C] | 515 ± 392 | 2.2 ± 2.5 | 
10 | Nc1ncnc2c1ncn2C1CCN(C(=O)P(=O)(O)O)CC1 [DR-5994A] |  | 1 ± 0.088 | IC50 [2]: 300 ± 30 µM
11 | Nc1nc2c(ncn2C2OC(COCP(=O)(O)O)C(OCP(=O)(O)O)C2O)c(=O)[nH]1 (stereo not shown) [DR-6331] | 76 ± 6 | 1.5 ± 0.2 | 
12 | Nc1nc2c(ncn2C2CCN(C(=O)CP(=O)(O)O)CC2)c(=O)[nH]1 [DR-M011] | 234 ± 67 | 0.62 ± 0.13 | IC50 [2]: 230 ± 70 µM
13 | NC(=O)C1=CN([C@@H]2O[C@H](COP(=O)(O)OP(=O)(O)OC[C@H]3O[C@@H](n4cnc5c(N)ncnc54)[C@H](O)[C@@H]3O)[C@@H](O)[C@H]2O)C=CC1 [NADH, reference compound] |  |  | Inhibitory effect on RelA (in words): None of the compounds showed any inhibitory effect
14 | NC(=O)C1=CN([C@@H]2O[C@H](COP(=O)(O)OP(=O)(O)OC[C@H]3O[C@@H](n4cnc5c(N)ncnc54)[C@H](OP(=O)(O)O)[C@@H]3O)[C@@H](O)[C@H]2O)C=CC1 [NADPH, reference compound] |  |  | Inhibitory effect on RelA (in words): None of the compounds showed any inhibitory effect
15 | Nc1ncnc2c1ncn2[C@@H]1O[C@@H]2COP(=O)(O)O[C@H]3[C@@H](O)[C@H](n4cnc5c(N)ncnc54)O[C@@H]3COP(=O)(O)O[C@H]2[C@H]1O [c-di-AMP, reference compound] |  |  | Inhibitory effect on RelA (in words): None of the compounds showed any inhibitory effect
16 | Nc1nc2c(ncn2[C@@H]2O[C@@H]3COP(=O)(O)O[C@H]4[C@@H](O)[C@H](n5cnc6c(N)ncnc65)O[C@@H]4COP(=O)(O)O[C@H]3[C@H]2O)c(=O)[nH]1 [c-di-GAMP, reference compound] |  |  | Inhibitory effect on RelA (in words): None of the compounds showed any inhibitory effect
17 | Nc1nc2c(ncn2[C@@H]2O[C@@H]3COP(=O)(O)O[C@H]4[C@@H](O)[C@H](n5cnc6c(=O)[nH]c(N)nc65)O[C@@H]4COP(=O)(O)O[C@H]3[C@H]2O)c(=O)[nH]1 [c-di-GMP, reference compound] |  |  | Inhibitory effect on RelA (in words): None of the compounds showed any inhibitory effect
18 | Nc1nc2c(ncn2C2CC(OC(=O)NCC(=O)NCC(=O)O)C(COC(=O)NCC(=O)NCC(=O)O)O2)c(=O)[nH]1 (stereo not shown) [di-iBu-Relacin] |  |  | Activity against RelA (in words): compromises its activity against RelA
19 | Nc1nc2c(ncn2C2OC(COP(=O)(O)OP(=O)(O)O)C(OP(=O)(O)OP(=O)(O)O)C2O)c(=O)[nH]1 (stereo not shown) [ppGpp, guanosine tetraphosphate] | 720 ± 440 |  | 
